Experimental data published in patent US11185100B2 (priority 2014, dated 2021).
Where two headings read alike, the source gives them in different places.

How the values were obtained:
[1] = target: T1, T1R1/T1R3 receptor (Felis catus, UniProt E3UMS2); assay: Activation of T1R1/T1R3 receptor by transmembrane compounds and nucleotide derivatives, conducted as in Examples 1, 2 and 5 (Example 7); type: cell-based, cat; conditions: for Activity: modulation of T1R1/T1R3
Excerpt: (§1) Methods: HEK293 cells that stably express T1R3 and inducibly express T1R1 were exposed to nucleotide derivatives alone to activate the umami receptor. Activation of the T1R1/T1R3 receptor was detected by a change in intracellular calcium levels using a calcium sensitive fluorescent dye. Cells that express T1R3 but not T1R1 were used as a control. A FLIPR® Tetra or a FlexStation® 3 was used for data capture.
as §1, with “alone or in combination with one or more amino acids and/or one or more nucleotides” for “alone”, “dye and/or a luminescent reporter system.” for “dye.”
as §1, with “transmembrane compounds” for “nucleotide derivatives”, “alone or in combination with one or more amino acids and/or one or more nucleotides” for “alone”
(§2) In each experiment, serial dilutions of up to 10 mM of the transmembrane compound were added to the T1R1/T1R3-expressing cells.

[2] = target: T1, T1R1/T1R3 receptor; assay: Agonist screening of transmembrane compounds on T1R1/T1R3 in HEK293 cells (Example 8); type: cell-based, cat; conditions: for T1R1/T1R3 agonist: transmembrane compound tested at 0.01, 0.1 and 1 mM, HEK293 cells expressing T1R1/T1R3, calcium readout
Method: (§3) Agonist Screening Method: HEK293 cells that stably express T1R3 and inducibly express T1R1 were exposed to a transmembrane compound. Activation of the T1R1/T1R3 receptor was detected by a change in intracellular calcium levels using a calcium sensitive fluorescent dye and/or a luminescent reporter system. […] A FLIPR® Tetra or a FlexStation® 3 was used for data capture.
Each transmembrane compound was tested at concentrations of 0.01 mM, 0.1 mM, and 1 mM. […] To generate the dose response curves, the transmembrane compound was tested at concentrations of between 0.0001 mM and 1.0 mM in the presence of GMP and Ala.

[3] = target: T1, T1R1/T1R3 receptor; assay: PAM screening of transmembrane compounds with GMP and Ala on T1R1/T1R3 in HEK293 cells (Example 8); type: cell-based, cat; conditions: for T1R1/T1R3 PAM: transmembrane compound at 0.01, 0.1 and 1 mM with GMP + Ala mixtures (T1-T4), PAM if response greater than sum of compound alone and GMP+Ala alone
Excerpt: as §3, with “PAM” for “Agonist”, “to” for “to a”, “compound alone or in combination with Ala and GMP to activate the umami receptor.” for “compound.”
Dose response curves were generated for each transmembrane compound at concentrations of 0 (buffer only), 0.01, 0.1 and 1 mM, wherein each of the three concentrations of transmembrane compound was tested in combination with 0.03 mM GMP+100 mM Ala (T1); 0.6 mM GMP+10 mM Ala (T2); 0.1 mM GMP+60 mM Ala (T3) and 0.3 mM GMP+60 mM Ala (T4). The T4 mixture was also tested in a 2-fold dilution series (the T4(X) Concentration). In these experiments, the first test concentration was 2× (2 times) the T4 concentration. The subsequent test concentrations were 2-fold dilutions from that (1×, 0.5× etc.). This dilution series was tested with or without the addition of the test compound at a constant 0.3 mM concentration.
Activation of the umami receptor was also determined in the presence of 1 mM GMP+100 mM Ala to generate a “maximum” umami receptor activation level.

[4] = target: cat T1R1/T1R3 receptor (Felis catus, UniProt E3UMS2); assay: cell-based; type: cell-based; conditions: for Max. resp. % of IMP: hek293 cells
Excerpt: as §1, with “alone or in combination with one or more amino acids and/or one or more nucleotides” for “alone”, “dye and/or a luminescent reporter system.” for “dye.”

[5] = target: T1, T1R1/T1R3 receptor; assay: Activation of T1R1/T1R3 receptor by transmembrane compounds alone or with alanine, IMP, GMP, phenylalanine; HEK293 cells, calcium fluorescence (Example 5); type: cell-based, cat; conditions: read-out: EC50 (effect with 0.2 mM IMP); Table 20 controls; in the presence of 0.2 mM IMP
Excerpt: as §1, with “transmembrane compounds” for “nucleotide derivatives”, “alone or in combination with one or more amino acids and/or one or more nucleotides” for “alone”
as §2

Compound: O=C1CC(=O)N(Cc2ccccc2)C(=O)N1Cc1ccccc1 [1,3-dibenzylpyrimidine-2,4,6(1H,3H,5H)-trione]
- Max resp ΔF/F +Alanine (20 mM) [1]: 0.2925 ΔF/F
- Thres +Alanine (20 mM) [1]: 0.1 mM
- Max resp % of Ala +IMP (0.2 mM) [1]: 35.7 % of Ala
- Max resp ΔF/F +IMP (0.2 mM) [1]: 0.2775 ΔF/F
- Thres +IMP (0.2 mM) [1]: 0.1 mM
- Max resp % of IMP +Alanine (20 mM) ([1]; hek293 cells): 42.7 % of IMP
- Activity [1]: active
- agonist profile assessment (activation of T1R1/T1R3 by the compound alone) [2]: agonist activity

Compound: O=C(CN1C(=O)C(=O)N(Cc2ccccc2)C1=O)c1ccc2c(c1)OCCCO2 [1-benzyl-3-(2-(3,4-dihydro-2H-benzo[b][1,4]dioxepin-7-yl)-2-oxoethyl)imidazolidine-2,4,5-trione]
- PAM profile assessment (activation of T1R1/T1R3 in the presence of GMP and Alanine) [3]: PAM activity

Compound: O=C(CN1C(=O)C(=O)N(Cc2ccccc2)C1=O)c1ccc(Cl)s1 [1-benzyl-3-(2-(5-chlorothiophen-2-yl)-2-oxoethyl)imidazolidine-2,4,5-trione]
- PAM profile assessment (activation of T1R1/T1R3 in the presence of GMP and Alanine) [3]: PAM activity

Compound: O=P(O)(O)OP(=O)(O)OP(=O)(O)OC[C@H]1O[C@@H](n2cnc3c(Cl)ncnc32)[C@H](O)[C@@H]1O [6-Chloropurine riboside-5′-O-triphosphate]
- Max resp. (ΔF/F) [4]: 0.345 ΔF/F
- Threshold [4]: 0.01 mM
- Max. resp. % of IMP [4]: 50.4 % of IMP
- Max resp % of IMP +Alanine (20 mM) ([1]; +Alanine (20 mM)): 50.4 % of IMP
- Max resp ΔF/F +Alanine (20 mM) ([1]; +Alanine (20 mM)): 0.3450 ΔF/F
- Thres +Alanine (20 mM) ([1]; +Alanine (20 mM)): 0.01 mM
- Max resp % of Ala +IMP (0.2 mM) [1]: 30.2 % of Ala
- Max resp ΔF/F +IMP (0.2 mM) [1]: 0.2350 ΔF/F
- Thres +IMP (0.2 mM) [1]: 0.003 mM
- Activity [1]: active

Compound: Nc1nc2c(ncn2[C@@H]2O[C@H](COP(=O)(O)OP(=O)(O)O)[C@@H](O)[C@H]2O)c(=S)[nH]1 [6-Thioguanosine-5′-O-diphosphate]
- Max resp. (ΔF/F) [4]: 1.047 ΔF/F
- Threshold [4]: 0.03 mM
- Max. resp. % of IMP [4]: 152.8 % of IMP
- EC50 ([4]; in the presence of 20 mM alanine, read-out: EC50- with Ala): 0.18 ± 0.02 mM
- Max resp ΔF/F +Alanine (20 mM) [1]: 1.0470 ΔF/F
- Thres +Alanine (20 mM) [1]: 0.03 mM
- Max resp % of Ala +IMP (0.2 mM) [1]: 9.3 % of Ala
- Max resp ΔF/F +IMP (0.2 mM) [1]: 0.0720 ΔF/F
- Max resp % of IMP +Alanine (20 mM) ([1]; hek293 cells): 152.8 % of IMP
- Activity [1]: active

Compound: COC(=O)[C@H](CC(C)C)NCc1ccccc1.Cl [Benzyl-L-leucine methyl ester hydrochloride]
- agonist profile assessment (activation of T1R1/T1R3 by the compound alone) [2]: agonist
- PAM profile assessment (activation of T1R1/T1R3 in the presence of GMP and Alanine) [3]: PAM activity

Compound: O=C(CN1C(=O)C(=O)N(Cc2ccccc2)C1=O)c1ccccc1 [Formula 1, 1-benzyl-3-(2-oxo-2-phenylethyl)imidazolidine-2,4,5-trione]
- T1R1/T1R3 agonist [2]: No
- T1R1/T1R3 PAM [3]: No

Compound: O=C(CN1C(=O)C(=O)N(Cc2ccccc2)C1=O)c1ccc2c(c1)CCC2 [Formula 2, 1-benzyl-3-(2-(2,3-dihydro-1H-inden-5-yl)-2-oxoethyl)imidazolidine-2,4,5-trione]
- T1R1/T1R3 agonist [2]: No
- T1R1/T1R3 PAM [3]: No

Compound: O=C(CN1C(=O)C(=O)N(Cc2ccccc2)C1=O)c1ccc(Br)cc1 [Formula 3, 1-benzyl-3-(2-(4-bromophenyl)-2-oxoethyl)imidazolidine-2,4,5-trione]
- T1R1/T1R3 agonist [2]: No
- T1R1/T1R3 PAM [3]: No

Compound: O=C(CN1C(=O)C(=O)N(Cc2ccccc2)C1=O)c1ccc2c(c1)OCCO2 [Formula 4, 1-benzyl-3-(2-(2,3-dihydrobenzo[b][1,4]dioxin-6-yl)-2-oxoethyl)imidazolidine-2,4,5-trione]
- T1R1/T1R3 agonist [2]: No
- T1R1/T1R3 PAM [3]: No

Compound: COc1ccc(C(=O)CN2C(=O)C(=O)N(Cc3ccccc3)C2=O)c(OC)c1 [Formula 5, 1-benzyl-3-(2-(2,4-dimethoxyphenyl)-2-oxoethyl)imidazolidine-2,4,5-trione]
- T1R1/T1R3 agonist [2]: No
- T1R1/T1R3 PAM [3]: No

Compound: O=C(CN1C(=O)C(=O)N(CCc2cccs2)C1=O)c1ccccc1 [Formula 6, 1-(2-oxo-2-phenylethyl)-3-(2-(thiophen-2-yl)ethyl)imidazolidine-2,4,5-trione]
- T1R1/T1R3 agonist [2]: No
- T1R1/T1R3 PAM [3]: No

Compound: O=C(CN1C(=O)C(=O)N(CCc2cccs2)C1=O)c1ccc2c(c1)OCO2 [Formula 7, 1-(2-(benzo[d][1,3]dioxol-5-yl)-2-oxoethyl)-3-(2-(thiophen-2-yl)ethyl)imidazolidine-2,4,5-trione]
- T1R1/T1R3 agonist [2]: No
- T1R1/T1R3 PAM [3]: No

Compound: O=C(CN1C(=O)C(=O)N(Cc2ccccc2)C1=O)c1ccc2c(c1)OCCCO2 [Formula 8, 1-benzyl-3-(2-(3,4-dihydro-2H-benzo[b][1,4]dioxepin-7-yl)-2-oxoethyl)imidazolidine-2,4,5-trione]
- T1R1/T1R3 agonist [2]: No
- T1R1/T1R3 PAM [3]: Weak PAM

Compound: N#Cc1cccc(NC(=O)CN2C(=O)C(=O)N(Cc3ccccc3)C2=O)c1 [Formula 9, 2-(3-benzyl-2,4,5-trioxoimidazolidin-1-yl)-N-(3-cyanophenyl)acetamide]
- T1R1/T1R3 agonist [2]: No
- T1R1/T1R3 PAM [3]: No

Compound: COc1ccccc1C(=O)CN1C(=O)C(=O)N(Cc2cccs2)C1=O [Formula 10, 1-(2-(2-methoxyphenyl)-2-oxoethyl)-3-(thiophen-2-ylmethyl)imidazolidine-2,4,5-trione]
- T1R1/T1R3 agonist [2]: No
- T1R1/T1R3 PAM [3]: No

Compound: O=C(CN1C(=O)C(=O)N(CCc2cccs2)C1=O)c1cccc2ccccc12 [Formula 11, 1-(2-(naphthalen-1-yl)-2-oxoethyl)-3-(2-(thiophen-2-yl)ethyl)imidazolidine-2,4,5-trione]
- T1R1/T1R3 agonist [2]: No
- T1R1/T1R3 PAM [3]: No

Compound: O=C(CN1C(=O)C(=O)N(Cc2ccccc2)C1=O)c1ccc(Cl)s1 [Formula 12, 1-benzyl-3-(2-(5-chlorothiophen-2-yl)-2-oxoethyl)imidazolidine-2,4,5-trione]
- T1R1/T1R3 agonist [2]: No
- T1R1/T1R3 PAM [3]: Weak PAM

Compound: C[C@H](N)C(=O)O [L-Alanine, reference compound]
- EC50 ([4]; read-out: EC50): 13.6 ± 4.3 mM
- EC50 [5]: 13.6 ± 4.3 mM
- Max resp % of Ala +IMP (0.2 mM) [1]: 100.0 % of Ala
- Max resp ΔF/F +IMP (0.2 mM) [1]: 0.7775 ΔF/F
- Thres +IMP (0.2 mM) [1]: 3.0 mM

Compound: O=C(NCCc1ccccc1)c1ccc2c(c1)OCO2 [N-phenethylbenzo[d][1,3]dioxole-5-carboxamide]
- Max resp ΔF/F +Alanine (20 mM) [1]: 0.0775 ΔF/F
- Thres +Alanine (20 mM) [1]: 1.0 mM
- Max resp % of Ala +IMP (0.2 mM) [1]: 92.0 % of Ala
- Max resp ΔF/F +IMP (0.2 mM) [1]: 0.7150 ΔF/F
- Thres +IMP (0.2 mM) [1]: 0.01 mM
- Max resp % of IMP +Alanine (20 mM) ([1]; hek293 cells): 11.3 % of IMP
- Activity [1]: active

Compound: O=C(NCCc1ccccc1)c1cccnc1 [N-phenethylnicotinamide]
- Max resp ΔF/F +Alanine (20 mM) [1]: 0.5725 ΔF/F
- Thres +Alanine (20 mM) [1]: 0.1 mM
- Max resp % of Ala +IMP (0.2 mM) [1]: 149.5 % of Ala
- Max resp ΔF/F +IMP (0.2 mM) [1]: 1.1625 ΔF/F
- Thres +IMP (0.2 mM) [1]: 0.03 mM
- Max resp % of IMP +Alanine (20 mM) ([1]; hek293 cells): 83.6 % of IMP
- Activity [1]: active
- EC50 ([1]; read-out: T1R1/T1R3 EC50): > 0.3 mM

Compound: CCOC(=O)NC(=O)C(c1ccccc1)c1ccccc1 [Ro 01-6128, reference compound]
- Max resp % of IMP +Alanine (20 mM) ([1]; +Alanine (20 mM)): 74.8 % of IMP
- Max resp ΔF/F +Alanine (20 mM) ([1]; +Alanine (20 mM)): 0.5125 ΔF/F
- Thres +Alanine (20 mM) ([1]; +Alanine (20 mM)): 0.3 mM
- Max resp % of Ala +IMP (0.2 mM) [1]: 199.7 % of Ala
- Max resp ΔF/F +IMP (0.2 mM) [1]: 1.5525 ΔF/F
- Thres +IMP (0.2 mM) [1]: 0.01 mM
- Activity [1]: active
